ChEMBL document CHEMBL4354807, “Natural Product Albiziabioside A Conjugated with Pyruvate Dehydrogenase Kinase Inhibitor Dichloroacetate To Induce Apoptosis-Ferroptosis-M2-TAMs Polarization for Combined Cancer Therapy” (J Med Chem, 2019)
Calls of active or inactive are those of the source. No cut-off for these calls is given here.

What was measured:
[1] = Cytotoxicity against human HBMEC cells assessed as reduction in cell viability after 72 hrs by MTT assay; type: cell-based
MCF7 [2] = experiment: Induction of ROS generation in human MCF7 cells assessed as ROS level at 30 uM after 24 hrs by DCFDA-fluorescence based flow cytometry (reference value: 6.57 %); type: functional
MCF7 [3] = experiment: (§1) Induction of metabolic reversal from aerobic glycolysis to oxidative phosphorylation in human MCF7 cells assessed as increase in extracellular acidification rate at 30 uM pretreated for 4 hrs followed by glucose addition after 25 mins by seahorse XF24 extracellular flux analyzer assay; type: functional, cell-based
MCF7 [4] = experiment: as §1, with “mins followed by subsequent addition of oligomycin A after 50 mins” for “mins”; type: functional, cell-based
4T1 [5] = experiment: Anticancer activity against mouse 4T1 cells expressing PDK assessed as reduction in cell viability after 72 hrs by MTT assay; type: functional, cell-based; settings: 4T1, 72 h
A-375 [6] = experiment: Anticancer activity against human A375 cells expressing PDK assessed as reduction in cell viability after 72 hrs by MTT assay; type: functional, cell-based; settings: A-375, 72 h
[7] = target: [Pyruvate dehydrogenase (acetyl-transferring)] kinase isozyme 1, mitochondrial (Homo sapiens) (UniProt Q15118); experiment: Inhibition of PDK1 (unknown origin) expressed in human MCF7 cells using PDK tide as substrate measured after 90 mins in presence of ATP by ADP-Glo luminescent kinase assay
MCF7 [8] = experiment: Inhibition of glycolysis in human MCF7 cells assessed as reduction in extracellular lactate level at 30 uM after 6 hrs by microplate reader assay; type: functional, cell-based
MCF7 [9] = experiment: Induction of apoptosis in human MCF7 cells assessed as early apoptotic cells at 30 uM after 24 hrs by Annexin V-FITC/propidium iodide staining-based flow cytometric analysis (reference value: 3.53 %); type: functional
4T1 [10] = experiment: Inhibition of glycolysis in mouse 4T1 cells expressing PDK assessed as reduction in extracellular lactate level at 30 uM after 6 hrs by microplate reader assay; type: functional, cell-based
MCF7 [11] = experiment: Induction of mitochondrial dysfunction in human MCF7 cells assessed as cell population with intact mitochondrial membrane potential at 30 uM after 24 hrs by JC1 staining-based FACScalibur flow cytometry analysis (reference value: 97%); type: functional
MCF7 [12] = experiment: Anticancer activity against human MCF7 cells overexpressing PDK assessed as reduction in cell viability after 72 hrs by MTT assay; type: functional, cell-based; settings: MCF7, 72 h
MCF7 [13] = experiment: (§2) Induction of metabolic reversal from aerobic glycolysis to oxidative phosphorylation in human MCF7 cells assessed as […] at 30 uM pretreated for 6 hrs followed by oligomycin A addition after 25 mins followed by subsequent addition of FCCP after 50 mins followed by antimycin/rotenone addition after 80 mins by seahorse XF24 extracellular flux analyzer assay; type: functional, cell-based
MCF7 [14] = experiment: Induction of apoptosis in human MCF7 cells assessed as viable cells at 30 uM after 24 hrs by Annexin V-FITC/propidium iodide staining-based flow cytometric analysis (reference value: 93.39 %); type: functional; settings: MCF7, 24 h, read-out: Activity
HCT-116 = experiment: Anticancer activity against human HCT116 cells expressing PDK assessed as reduction in cell viability after 72 hrs by MTT assay; type: functional, cell-based; settings: HCT-116, 72 h
MCF7 [15] = experiment: Antitumor activity against human MCF7 cells xenografted in BALB/c nude mouse assessed as tumor growth inhibition at 30 mg/kg, iv administered every two days for two weeks measured after 14 days; type: functional, organism-based
MCF7 [16] = experiment: Downregulation of PDK expression in human MCF7 cells at 2.5 to 10 uM after 48 hrs by Western blot analysis; type: functional, cell-based
[17] = Toxicity in BALB/c nude mouse xenografted with human MCF7 cells assessed as mouse death at 30 mg/kg, iv administered every 2 days for 2 weeks measured after 14 days; type: organism-based; settings: in vivo, 336 h
[18] = Toxicity in BALB/c nude mouse xenografted with human MCF7 cells assessed as effect on body weight at 30 mg/kg, iv administered every 2 days for 2 weeks measured after 14 days; type: organism-based; settings: in vivo, 336 h
MCF7 [19] = experiment: Induction of mitochondrial dysfunction in human MCF7 cells assessed as cell population with mitochondrial membrane potential collapse at 30 uM after 24 hrs by JC1 staining-based FACScalibur flow cytometry analysis (reference value: 2.74 %); type: functional
MCF7 [20] = experiment: as §1, with “decline” for “increase”, “mins followed by subsequent addition of oligomycin A after 50 mins followed by 2-DG addition after 80 mins” for “mins”; type: functional, cell-based
L02 = experiment: Cytotoxicity against human LO2 cells assessed as reduction in cell viability after 72 hrs by MTT assay; type: cell-based; settings: L02, 72 h
MCF7 [21] = experiment: Cytotoxicity against human MCF7 cells assessed as cell death at 30 uM pretreated with Z-VAD-fmk followed by compound addition by MTT assay; type: functional, cell-based
MCF7 [22] = experiment: Inhibition of glycolysis in human MCF7 cells assessed as reduction in intracellular lactate level at 30 uM after 6 hrs by microplate reader assay; type: functional, cell-based
4T1 [23] = experiment: Inhibition of glycolysis in mouse 4T1 cells expressing PDK assessed as reduction in intracellular lactate level at 30 uM after 6 hrs by microplate reader assay; type: functional, cell-based
MCF7 [24] = experiment: Induction of apoptosis in human MCF7 cells assessed as late apoptotic cells at 30 uM after 24 hrs by Annexin V-FITC/propidium iodide staining-based flow cytometric analysis (reference value: 2.97 %); type: functional
MCF7 [25] = experiment: Induction of apoptosis in human MCF7 cells assessed as necrotic cells at 30 uM after 24 hrs by Annexin V-FITC/propidium iodide staining-based flow cytometric analysis (reference value: 0.10 %); type: functional
[26] = Toxicity in BALB/c nude mouse xenografted with human MCF7 cells assessed as effect on body weight at 10 mg/kg, iv administered every 2 days for 2 weeks measured after 14 days; type: organism-based; settings: in vivo, 336 h
MCF7 [27] = experiment: as §1, with “decrease” for “increase”, “10” for “30”, “mins followed by subsequent addition of oligomycin A after 50 mins followed by 2-DG addition after 80 mins” for “mins”; type: functional, cell-based
4T1 [28] = experiment: Inhibition of glycolysis in mouse 4T1 cells expressing PDK assessed as reduction in intracellular lactate level at 10 uM after 6 hrs by microplate reader assay; type: functional, cell-based
MCF7 [29] = experiment: (§3) Induction of metabolic reversal from aerobic glycolysis to oxidative phosphorylation in human MCF7 cells assessed as […] at 10 uM pretreated for 4 hrs followed by glucose addition after 25 mins by seahorse XF24 extracellular flux analyzer assay; type: functional, cell-based
MCF7 [30] = experiment: Induction of apoptosis in human MCF7 cells assessed as necrotic cells at 10 uM after 24 hrs by Annexin V-FITC/propidium iodide staining-based flow cytometric analysis (reference value: 0.10 %); type: functional
A-375 [31] = experiment: Cytotoxicity against human A375 cells assessed as reduction in cell viability after 72 hrs by MTT assay; type: functional, cell-based; settings: A-375, 72 h
MCF7 [32] = experiment: Induction of apoptosis in human MCF7 cells assessed as late apoptotic cells at 10 uM after 24 hrs by Annexin V-FITC/propidium iodide staining-based flow cytometric analysis (reference value: 2.97 %); type: functional
MCF7 [33] = experiment: Induction of ROS generation in human MCF7 cells assessed as ROS level at 10 uM after 24 hrs by DCFDA-fluorescence based flow cytometry (reference value: 6.57 %); type: functional
MCF7 [34] = experiment: Inhibition of glycolysis in human MCF7 cells assessed as reduction in intracellular lactate level at 10 uM after 6 hrs by microplate reader assay; type: functional, cell-based
MCF7 [35] = experiment: Induction of mitochondrial dysfunction in human MCF7 cells assessed as cell population with intact mitochondrial membrane potential at 10 uM after 24 hrs by JC1 staining-based FACScalibur flow cytometry analysis (reference value: 97%); type: functional
MCF7 [36] = experiment: Induction of mitochondrial dysfunction in human MCF7 cells assessed as cell population with mitochondrial membrane potential collapse at 10 uM after 24 hrs by JC1 staining-based FACScalibur flow cytometry analysis (reference value: 2.74 %); type: functional
[37] = Toxicity in BALB/c nude mouse xenografted with human MCF7 cells assessed as mouse death at 10 mg/kg, iv administered every 2 days for 2 weeks measured after 14 days; type: organism-based; settings: in vivo, 336 h
MCF7 [38] = experiment: Induction of apoptosis in human MCF7 cells assessed as viable cells at 10 uM after 24 hrs by Annexin V-FITC/propidium iodide staining-based flow cytometric analysis (reference value: 93.39 %); type: functional; settings: MCF7, 24 h, read-out: Activity
MCF7 [39] = experiment: Inhibition of glycolysis in human MCF7 cells assessed as reduction in extracellular lactate level at 10 uM after 6 hrs by microplate reader assay; type: functional, cell-based
MCF7 [40] = experiment: Induction of apoptosis in human MCF7 cells assessed as early apoptotic cells at 10 uM after 24 hrs by Annexin V-FITC/propidium iodide staining-based flow cytometric analysis (reference value: 3.53 %); type: functional
MCF7 [41] = experiment: as §3, with “mins followed by subsequent addition of oligomycin A after 50 mins” for “mins”; type: functional, cell-based
MCF7 [42] = experiment: Cytotoxicity against human MCF7 cells assessed as cell death at 10 uM pretreated with Z-VAD-fmk followed by compound addition by MTT assay; type: functional, cell-based
MCF7 [43] = experiment: Antitumor activity against human MCF7 cells xenografted in BALB/c nude mouse assessed as tumor growth inhibition at 10 mg/kg, iv administered every two days for two weeks measured after 14 days; type: functional, organism-based
MCF7 [44] = experiment: as §2, with “10” for “30”; type: functional, cell-based
4T1 [45] = experiment: Inhibition of glycolysis in mouse 4T1 cells expressing PDK assessed as reduction in extracellular lactate level at 10 uM after 6 hrs by microplate reader assay; type: functional, cell-based

With `O=C([O-])C(Cl)Cl.[Na+]` [SODIUM DICHLOROACETATE] the IC50 [1] was greater than 100 µM, the Activity (MCF7 [2]) was 15.13% and the Activity (MCF7 [3]) was “Active”. For the same compound, the Activity (MCF7 [4]) was “Active”, the IC50 (4T1 [5]) was greater than 100 µM and the IC50 (A-375 [6]) was greater than 100 µM. For the same compound, the inhibition [7] was “Active”, the inhibition (MCF7 [8]) was “inactive” and the Activity (MCF7 [9]) was 12.57%. For the same compound, the inhibition (4T1 [10]) was “inactive”, the Activity (MCF7 [11]) was 84.95% and the IC50 (MCF7 [12]) was greater than 100 µM. The Activity (MCF7 [13]) was “Active”, the viability at 30 µM (MCF7 [14]) was 79.9% and the IC50 (HCT-116) was greater than 100 µM. For the same compound, the Activity (MCF7 [15]) was “Active”, the Activity (MCF7 [16]) was “inactive” and the Activity [17] was “Non-Toxic”. For the same compound, the Activity [18] was “Non-Toxic”, the Activity (MCF7 [19]) was 14.63% and the Activity (MCF7 [20]) was “Active”. For the same compound, the IC50 (L02) was greater than 100 µM, the Activity (MCF7 [21]) was “inactive” and the inhibition (MCF7 [22]) was “inactive”. For the same compound, the inhibition (4T1 [23]) was “inactive”, the Activity (MCF7 [24]) was 5.86% and the Activity (MCF7 [25]) was 1.67%.

For `CC(=O)N[C@H]1[C@H](O[C@H]2CC[C@]3(C)[C@H]4CC=C5[C@@H]6CC(C)(C)CC[C@]6(C(=O)O)CC[C@@]5(C)[C@]4(C)CC[C@H]3C2(C)C)O[C@H](CO[C@@H]2OC[C@H](O)[C@H](O)[C@H]2O)[C@@H](O)[C@@H]1O`, the IC50 [1] was 37.1 µM, the Activity [26] was “Non-Toxic” and the Activity (MCF7 [27]) was “Active”. The IC50 (4T1 [5]) was 16.4 µM, the IC50 (A-375 [6]) was 5.73 µM and the inhibition [7] was “inactive”. For the same compound, the inhibition (4T1 [28]) was “inactive”, the Activity (MCF7 [29]) was “Active” and the Activity (MCF7 [30]) was 2.07%. The IC50 (A-375 [31]) was 5.47 µM, the Activity (MCF7 [32]) was 9.07% and the IC50 (MCF7 [12]) was 20.4 µM. For the same compound, the Activity (MCF7 [33]) was 26.43%, the IC50 (HCT-116) was 21.6 µM and the inhibition (MCF7 [34]) was “inactive”. For the same compound, the Activity (MCF7 [35]) was 72.69%, the Activity (MCF7 [36]) was 25.86% and the IC50 (L02) was 33.2 µM. For the same compound, the Activity [37] was “Non-Toxic”, the viability at 10 µM (MCF7 [38]) was 70.4% and the inhibition (MCF7 [39]) was “inactive”. For the same compound, the Activity (MCF7 [40]) was 18.5%, the Activity (MCF7 [41]) was “Active” and the Activity (MCF7 [42]) was “inactive”. The Activity (MCF7 [43]) was “Active”, the Activity (MCF7 [44]) was “Active” and the inhibition (4T1 [45]) was “inactive”.

For `CC1(C)CC[C@]2(C(=O)O)CC[C@]3(C)C(=CC[C@@H]4[C@@]5(C)CC[C@H](O[C@@H]6O[C@H](CO[C@@H]7OC[C@H](O)[C@H](O)[C@H]7O)[C@@H](O)[C@H](O)[C@H]6NC(=O)CCl)C(C)(C)[C@@H]5CC[C@]43C)[C@@H]2C1`, the inhibition [7] was “inactive”.

For `O=c1[nH]cc(F)c(=O)[nH]1` [FLUOROURACIL], the IC50 [1] was 27.3 µM, the Activity [26] was “Non-Toxic” and the IC50 (4T1 [5]) was 28.1 µM. It also gave an IC50 (A-375 [6]) of 21.1 µM, an IC50 (HCT-116) of 26.1 µM and an IC50 (L02) of 29.5 µM. The Activity [37] was “Non-Toxic” and the Activity (MCF7 [43]) was “Active”.
